Read-outs that look alike come from different tables or passages of the source.

Data set [1] concerns Gli1. As to the kind of experiment: Gli1 mRNA expression by RT-PCR / real-time RT-PCR in TRAMP-C2 cells. Type of data set: cell-based, mouse. To be noted: for suppression of Gli1 mRNA concentration compared with cyclopamine 30 μM: TRAMP-C2, time course 72 hrs, genistein 50 μM, EGCG 100 μM, FIG. 7A. Here is the method:
(§1) It has been shown that phytoestrogens in common herbs regulate prostate cancer cell growth in vitro (Shenouda et al., 2004). In order to determine whether these phytoestrogens also regulate cells derived from the mouse model of prostate cancer, the TRAMP-C2 cell line was treated with the soy phytoestrogen genistein and growth inhibition IC50 doses were determined (FIG. 4). Effects of the phytoestrogens genistein and EGCG on expression of these Hedgehog-pathway components were also determined by quantitative RT-PCR. Cyclopamine was used as a control. […] GAPDH was used as an internal control.
Another experiment was carried out to determine the dosage response of these phytoestrogen on Gli1 expression in the TRAMP-C2 cell line. Increasing amounts of genistein or EGCG were added to cell cultures of TRAMP-C2, and the levels of Gli1 mRNA was determined by real time RT-PCR. The results of this experiment verifies a correlation between phytoestrogen treatment and Hedgehog activity (FIG. 6).
In order to test whether the inhibitory effect of genistein on Gli1 transcription is through ERα or ERβ, experiments were conducted to determine whether 17β-estradiol (E2) works in the same manner as genistein (FIG. 7C).
For orientation: In qPCR the cycle at which signal appears reflects the starting amount.

Data set [2] relates to Gli1 protein in LNCaP cells. As to the kind of experiment: Gli1 protein concentration in LNCaP cells by Western blot. Type of data set: cell-based, human. Here is the method: (§2) Approximate IC50 values for pathway repression were determined as 30 μM for genistein, 20 μM for EGCG, and 5 μM for resveratrol. These concentrations may be easily obtainable pharmacologically in humans. […] Thus, Genistein, EGCG, and resveratrol may regulate prostate cancer via inhibition of the Hedgehog signaling pathway.
A general note: Immunoblotting shows a protein as a band on a membrane.

Data set [3] concerns TRAMP-C2 cells. The data set can be described thus: Growth of TRAMP-C2 cell line (total cellular protein). The class given is cell-based, mouse. Here is the method: as §1
The test system of data set [4] is Patched1. The data set can be described thus: Patched1 mRNA levels by RT-PCR. Type of data set: cell-based, mouse. Here is the method: as §1, §2
Data set [5] deals with Hedgehog signaling pathway. The data set can be described thus: Hedgehog pathway repression, approximate IC50 from RT-PCR. Type of data set: cell-based, mouse. The note with it: read-out: Approximate IC50 for pathway repression. Here is the method: Another experiment was carried out to determine the dosage response of these phytoestrogen on Gli1 expression in the TRAMP-C2 cell line. […] The results of this experiment verifies a correlation between phytoestrogen treatment and Hedgehog activity (FIG. 6). […] These concentrations may be easily obtainable pharmacologically in humans.

Data set [6] deals with Hedgehog pathway activity in Shh Light II cells. The data set can be described thus: Shh Light II Gli1-responsive luciferase reporter assay. The note with it: Shh Light II cells with sonic hedgehog protein, 24 hours, FIG. 7B. The class given is cell-based. Here is the method:
The effects of various phytoestrogens on Hedgehog signaling in a non-tumor cell line Shh Light II were also assessed (FIG. 7B). Shh Light II cells were obtained from the ATCC. These cells, containing the Gli1 responsive promoter driving a luciferase reporter, are a standard tool used to assay Hedgehog pathway activity. Meloni et al., 2006. Cells were allowed to reach confluency in 24-well plates and subsequently treated with the selected phytoestrogens at the amount indicated on the figure, along with the stimulatory sonic hedgehog protein (obtained from R&D Systems). The cells were then grown for 24 hours in phenol red-free DMEM supplemented with 0.5% charcoal stripped fetal bovine serum. Cells were then lysed, and the luciferase and renilla activities of the cell lysates were measured.
(A reporter such as luciferase makes a cellular process visible.)

Data set [7] concerns xenograft tumors. To be noted: mice; cited from earlier work.
The conditions of data set [8]: in vivo; cited from earlier work.
In data set [9] the test system is estrogen receptor alpha (ERα) and beta (ERβ). The note with it: cited from earlier work.
Data set [10] has as its system poorly differentiated carcinoma in TRAMP mouse. The note with it: TRAMP mouse model; cited from earlier work.
Data set [11] deals with prostate tumor in ERβKO/TRAMP mice. The data set can be described thus: Prostate tumorigenesis in ERβKO/TRAMP mice fed genistein diet. The class given is in vivo, mouse. Here is the method:
(§3) The influence of estrogen on prostate cancer has been previously described in the Background section. In order to determine the effect of genistein on prostate tumor development in the TRAMP model, in the first experiment, groups of ˜30 male mice, either ERαKO/TRAMP, ERβKO/TRAMP or ERWT/TRAMP were fed diets containing 0 or 300 mg genistein/kg (See Table 1). Mice were fed the diets from weaning and were euthanized at 5 months of age. Prostates were dissected and prepared for histopathology. The tumor stage was assessed using ratings of normal (N), hyperplasia (HYP), prostatic intraepithelial neoplasia (PIN), well differentiated carcinoma (WDC), moderately differentiated carcinoma (MDC) or poorly differentiated carcinoma (PDC) See Wechter et al., 2000; also see http://thegreenberglab.fhcrc.org. To summarize the data, non-cancer was defined as N, HYP or PIN and cancer was defined as WDC, MDC or PDC (Table 1) The prostate tumor incidence was compared between mice fed with genistein diet and those fed with casein.

Data set [12] deals with prostate tumor in ERWT/TRAMP mice. The data set can be described thus: Prostate tumorigenesis in ERWT/TRAMP mice fed genistein diet. The class given is in vivo, mouse. Here is the method:
as §3

Data set [13] has as its system prostate tumor in ERαKO/TRAMP mice. As to the kind of experiment: Prostate tumorigenesis in ERαKO/TRAMP mice fed genistein diet. The class given is in vivo, mouse. Here is the method:
as §3

The mark [14] stands for this setting: ERβKO/TRAMP, 300 mg genistein/kg diet, 5 months of age.
[15] abbreviates: ERWT/TRAMP, 300 mg genistein/kg diet, 5 months of age.
Where [16] appears, read: ERαKO/TRAMP, 300 mg genistein/kg diet, 5 months of age.

For the compound `C[C@]12CC[C@@H]3c4ccc(O)cc4CC[C@H]3[C@@H]1CC[C@@H]2O` [E2, 17β-estradiol, reference compound], the “inhibition of Gli1 expression” value in data set [1] (TRAMP-C2 cells, 10 nM, 24 hours, FIG. 7C) is “Strong inhibition”.
As for `O=C(O[C@@H]1Cc2c(O)cc(O)cc2O[C@@H]1c1cc(O)c(O)c(O)c1)c1cc(O)c(O)c(O)c1` [EGCG], the Gli1 protein concentration result in data set [2] was “significantly reduced”. Also, the “suppression of Gli1 mRNA concentration compared with cyclopamine 30 μM” value in data set [1] is on record as “more pronounced”. In [1] (TRAMP-C2 cells), the “expression of Gli1, Gli2 and Gli3” value is listed as “down-regulate”. Besides, the “proliferation of TRAMP-C2 cells” value in [3] is “inhibited”. The “reduction of Patched1 mRNA levels” value in data set [4] is listed as 70%. The IC50 (in general, the midpoint of a concentration-inhibition curve) in data set [5] (RT-PCR) was approximately 20 µM.
As to `COc1cc(/C=C/C(=O)CC(=O)/C=C/c2ccc(O)c(OC)c2)ccc1O` [curcumin], the “hedgehog activity (luciferase reporter activity)” value in [6] is recorded as “inhibit”.
As to `CC1=C2C[C@H]3[C@@H](CC=C4C[C@@H](O)CC[C@@]43C)[C@@H]2CC[C@]12O[C@@H]1C[C@H](C)CN[C@H]1[C@H]2C` [cyclopamine], the “effect on xenograft tumors” value in [7] is “complete regression”. Also, the “birth defects in the progeny” value in data set [8] is given as “cause birth defects, most notably cyclopia”.
Turning to `O=c1c(-c2ccc(O)cc2)coc2cc(O)cc(O)c12` [genistein], the Gli1 protein concentration entry in data set [2] was “significantly reduced”. For the same compound, the “binding to ERα and ERβ” value in data set [9] was “bind both receptors with a higher affinity for ERβ”. In addition, the “suppression of Gli1 mRNA concentration compared with cyclopamine 30 μM” value in data set [1] is given as “more pronounced”. In addition, the “expression of Gli1, Gli2 and Gli3” value in data set [1] (TRAMP-C2 cells) is “down-regulate”. Besides, the “Gli1 expression compared to the untreated control” value in data set [1] (TRAMP-C2 cells, RT-PCR, FIG. 5, GAPDH internal control) is reported as “down-regulates”. Moreover, in data set [1] (TRAMP-C2 cells, with 10 nM E2, FIG. 7C), the “effect of addition of genistein on inhibition of Gli1 expression by E2” value is reported as “did not enhance”. For the same compound, in data set [10], the “effect on poorly differentiated carcinoma” value is “protective effect”. Also, the “proliferation of TRAMP-C2 cells” value in data set [3] is “inhibited”. Further, the “protective effect on prostate tumor incidence versus casein diet” value in data set [11] (ERβKO/TRAMP mice, 300 mg genistein/kg diet from weaning to 5 months) was “not”. In data set [11] (setting [14]), the “HYP (2), number of mice” value was 0; the “MDC (5), number of mice” value was 0; the “Normal (Stage1), number of mice” value is 0; the “PDC (6), incidence” value was found to be 48%. For the same compound, in data set [11] (setting [14]), the “PDC (6), number of mice” value was determined as 10; the “PIN (3), incidence” value was 19%; the “PIN (3), number of mice” value was 4; the “WDC (4), incidence” value is given as 33%. Also, the “WDC (4), number of mice” value in data set [11] (setting [14]) came to 7. Also, the “reduction of Patched1 mRNA levels” value in data set [4] worked out at 70%. Besides, the “protective effect on prostate tumor incidence versus casein diet” value in [12] (ERWT/TRAMP mice, 300 mg genistein/kg diet from weaning to 5 months) is listed as “significant protective effect”. For the same compound, in data set [12] (setting [15]), the “HYP (2), incidence” value was determined as 28%; the “HYP (2), number of mice” value is reported as 15; the “MDC (5), incidence” value stood at 2%; the “MDC (5), number of mice” value is given as 1. In data set [12] (setting [15]), the “Normal (Stage1), number of mice” value was 0; the “PDC (6), incidence” value came out at 24%; the “PDC (6), number of mice” value is reported as 13; the “PIN (3), incidence” value was determined as 33%. In addition, in data set [12] (setting [15]), the “PIN (3), number of mice” value is on record as 18; the “WDC (4), incidence” value turned out to be 13%; the “WDC (4), number of mice” value came out at 7. In addition, in data set [5] (Mus musculus), the IC50 is approximately 30 µM. Further, the “protective effect on prostate tumor incidence versus casein diet” value in data set [13] (ERαKO/TRAMP mice, 300 mg genistein/kg diet from weaning to 5 months) is reported as “not”. Besides, in data set [13] (setting [16]), the “HYP (2), number of mice” value is 0; the “MDC (5), incidence” value is on record as 3.8%; the “MDC (5), number of mice” value was determined as 1; the “Normal (Stage1), incidence” value amounted to 3.8%. Moreover, in data set [13] (setting [16]), the “Normal (Stage1), number of mice” value amounted to 1; the “PDC (6), number of mice” value was 0; the “PIN (3), incidence” value came out at 3.8%; the “PIN (3), number of mice” value was 1. In [13] (setting [16]), the “WDC (4), incidence” value was 88.6% and the “WDC (4), number of mice” value worked out at 23. In addition, in data set [6], the “hedgehog activity (luciferase reporter activity)” value was “inhibit”.
Take `Oc1ccc(C=Cc2cc(O)cc(O)c2)cc1` [resveratrol]: the Gli1 protein concentration result in data set [2] is given as “significantly reduced”. In data set [1] (RT-PCR), the “reduction of Gli1 mRNA” value is 60%. Also, in data set [4], the “reduction of Patched1 mRNA levels” value is listed as 50%. For the same compound, the IC50 in [5] (Mus musculus, RT-PCR) is approximately 5 µM.
